Data as given in patent publication US20070167495A1, “Pleuromutilin derivatives, process for their preparation and uses thereof” (GLAXO[…] UNLIMITED, priority 2003, published 2007).

Experiments:
[1] = literature background (Egger and Reinshagen, J. Antibiotics 1976); cited from earlier work
[2] = system: Streptococcus pneumoniae 1629; experiment: Antibacterial activity, MIC against Streptococcus pneumoniae 1629; assay type: cell-based
[3] = system: Staphylococccus aureus Oxford; experiment: Antibacterial activity, MIC against Staphylococccus aureus Oxford; assay type: cell-based, Staphylococcus aureus

| Molecule | antibacterial activity [1] | MIC [2] | MIC [3] |
| --- | --- | --- | --- |
| C=C[C@]1(C)C[C@@H](OC(=O)CSc2ccccc2C(=O)O)[C@]2(C)[C@H](C)CC[C@]3(CCC(=O)[C@H]32)[C@@H](C)[C@@H]1O [(2-carboxylato-phenylsulfanyl)-acetic acid mutilin 14-ester] | inferior in activity even to the parent substance pleuromutilin | 8 micrograms per millillitre | 0.5 micrograms per millillitre |
| C=C[C@]1(C)C[C@@H](OC(=O)CO)[C@]2(C)[C@H](C)CC[C@]3(CCC(=O)[C@H]32)[C@@H](C)[C@@H]1O [Pleuromutilin] | modest antibacterial activity |  |  |
| (4-Carboxylato-phenylsulfanyl)-acetic acid mutilin 14-ester [Example 1] |  | 0.5 micrograms per millillitre | 0.125 micrograms per millillitre |
| C=C[C@]1(C)C[C@@H](O)[C@]2(C)[C@H](C)CC[C@]3(CCC(=O)[C@H]32)[C@@H](C)[C@@H]1O [Mutilin] | inactive |  |  |
